Literature values, collected in US20210299134A1, “TREATMENT OF B CELL MALIGNANCIES” (MEI Pharma, Inc., priority 2018, published 2021).

How the values were obtained:
B-cell malignancies = conditions: a day per week dosing after once daily dosing for two 28-day cycles; preliminary data; cited from earlier work
[1] = cited from earlier work
TREGs = conditions: after administration of a single dose; cited from earlier work

Compound: CCOc1c([C@H](C)n2nc(C)c3c(N)ncnc32)cc(Cl)c(F)c1[C@@H]1CNC(=O)C1 [parsaclisib]
- incidence of severe irAEs on IS (B-cell malignancies): decrease in the incidence of severe irAEs
- tumor progression on IS (B-cell malignancies): high rate of tumor progression
- plasma levels versus tissue levels ([1]; FIG. 6B): plasma approximates tissue levels
- plasma levels >IC90, share of time ([1]; once weekly dosing): 32%

Compound: denileukin diftitox
- time to TREGs repopulation (TREGs): approximately 14 days
